From patent EP0993306B1, “PERFLUOROALKYLATED OLIGOMER COMPOUNDS, PROCESS FOR PREPARING THE SAME AND THEIR USE IN NMR DIAGNOSIS” (SCHERING AKTIENGESELLSCHAFT, priority 1997, dated 1999)

What was measured:
[1] = T1 relaxivity in human plasma (Minispec pc 20); format: physicochemical; settings: for R^1 (T^1-Relaxivity): 0.47 T, 20 MHz, 37 °C, Humanplasma, normalised to one metal atom
[2] = Excretion after s.c. administration: metal retention in liver, kidneys, spleen; format: in vivo, Meerschweinchen; settings: 10 µmol/kg interstitial, MW ± SD, n=2
Source text: Nach subkutaner Gabe von 10 µmol Gesamtgadolinium (Beispiel 19) /kg Körpergewicht in die Hinterpfote des Meerschweines wurde 7 Tage nach Applikation die Retention des Metalls in der Leber, in den Nieren sowie in der Milz untersucht.

[3] = rat, in vivo, iv, 100 umol/kg
Source text: Hierfür wurde nach einmaliger intravenöser Applikation (via einer Caudalvene) der Substanzen (Dosis: ≈ 100 µmol Metall pro kg Körpergewicht) die Substanzkonzentration im Blut (basierend auf dem Gd- bzw. Dy-Gehalt) über einen Zeitraum bis zu 120 Minuten p. i. mittels ICP-AES bestimmt. Die pharmakokinetischen Parameter: Verteilungsvolumen (Vss), Gesamtclearance (CLtot) und Eliminationshalbwertszeit (tb) wurden mit einem speziellen Computerprogramm (TOPFIT 2.0; Thomae, Schering, Gödecke) berechnet, wobei ein Zwei-Kompartment-Distributionsmodell zu Grunde gelegt wurde.
Die Gd- und Dy-Gehalte im Blut wurden mittels ICP-AES bestimmt.
Hierfür wurde nach einmaliger intravenöser Applikation (via einer Caudalvene) der Substanzen (Dosis: ≈ 100 µmol Metall pro kg Körpergewicht) die Substanzkonzentration im Blut (basierend auf dem Metallgehalt) über einen Zeitraum bis zu 120 Minuten p. i. mittels ICP-AES bestimmt. Die pharmakokinetischen Parameter: Verteilungsvolumen (Vss), Gesamtclearance (CLtot) und Eliminationshalbwertszeit (tb) wurden mit einem speziellen Computerprogramm (TOPFIT 2.0; Thomae, Schering, Gödecke) berechnet, wobei ein Zwei-Kompartment-Distributionsmodell zu Grunde gelegt wurde.

[4] = Retention of the contrast metal at the injection site (paw); format: in vivo, Meerschweinchen; settings: 10 µmol/kg interstitial, MW ± SD, n=3
Source text: Nach s.c. Gabe von 10 µmol Gesamtgadolinium (Beispiel 19)/kg Körpergewicht in die Meerschweinchenpfote wurde die Retention des Metalls am Injektionsort zu verschiedenen Zeitpunkten untersucht.

[5] = Lymph node accumulation in stimulated guinea pigs after s.c. administration (ICP-AES); format: in vivo, Meerschweinchen; settings: 10 µmol/kg s.c. hind paw, MW ± SD, n=3
Source text: Die erfindungsgemäßen Verbindungen erfüllen alle Voraussetzungen, die von Kontrastmitteln in der indirekten NMR-Lymphographie verlangt werden: gute lokale Verträglichkeit, rascher Abtransport vom Injektionsort, rasche und weitestgehend vollständige Ausscheidung aus dem Gesamtorganismus. Ferner zeigen sie eine hohe Anreicherung über mehrere Lymphknotenstationen und erlauben damit relevante diagnostische Aussagen. So konnte am Meerschweinchenmodell eine hohe Anreicherung über mehrere Lymphknotenstationen (popliteal, inguinal, iliakal) nach s.c. Gabe (2,5-10 µmol/kg Körpergewicht, Injektion in Zwischenzehenräume der Hinterpfote) gezeigt werden. In besonders geeigneten Fällen wurden so in der zweiten (inguinal) und dritten (iliakal) Station noch Gadoliniumkonzentrationen von jeweils ≥ 200 bzw. ≥ 300 µmol/l erhalten. Üblicherweise sind mit den erfindungsgemäßen Verbindungen Lymphknotenkonzentrationen bis zu 1000 µmol/l zu erhalten.
Der Gadolinium-Komplex des Beispiels 19 wurde 30 Min./ 90 Min. nach subkutaner Gabe (10 µmol Gesamtgadolinium/kg KG, Hinterpfote s.c.) an stimulierten Meerschweinchen (komplettes Freund-Adjuvant; jeweils 0,1 ml i.m. in den rechten und linken Ober- und Unterschenkel; 2 Wochen vor Gabe der Prüfsubstanz) hinsichtlich ihrer Lymphknotenanreicherung in drei aufeinanderfolgenden Lymphknotenstationen (popliteal, inguinal, iliakal) untersucht. Hierbei wurden die nachfolgend aufgelisteten Ergebnisse (Ermittlung der Gadolinium-Konzentration mittels ICP-AES) erhalten: […]

[6] = 39 °C, 0,47 T; cited from earlier work
[7] = Diffusibility: in vivo comparison with an intravasal and an extracellular contrast agent, ligated renal vessels; settings: i.v. 20 µmol/kg each, ligated renal vessels, relative to Verbindung 2 set as 100 %
Experimental: (§1) Als Versuchstiere dienten drei 250 g schwere, männliche (Schering-SPF-) Ratten. Den Tieren wurden die Nierengefäße abgebunden, um eine renale Eliminierung zu verhindern und bei angenommener vernachlässigbarer faekaler Eliminierung ein Maß für Diffusibilität der erfindungsgemäßen Formulierung aus dem Blut in das umgebende Gewebe zu erhalten. Je Tier wurden 0.5 ml (jeweils 10 mmol/L) der folgenden Kontrastmittel-Lösung intravenös appliziert: Gemisch aus je 1 Teil der Verbindung des Beispiels 1g, im folgenden Verbindung 1 genannt, des intravasalen Kontrastmittels Eu-DTPA-Albumin, im folgenden Verbindung 2 genannt, und des extrazellulären Kontrastmittels Dy-DTPA, im folgenden Verbindung 3 genannt. Über einen Katheter in der Arteria carotis communis wurden Blutproben zu folgenden Zeitpunkten entnommen: 15, 30, 45, 60, 90 sec, 3, 5, 10, 15 min p.i. In den gewonnenen Blutproben wurden jeweils parallel die Konzentrationen an Gadolinium (Gd), Europium (Eu) und Dysprosium (Dy) mittels Atomemissionsspektrometrie (ICP-AES) gemessen. Der im Blutraum verbliebene Anteil des intravasalen Kontrastmittels Verbindung 2 (Eu) wurde als 100 % gesetzt. Der im Blutraum verbliebene Anteil der erfindungsgemäßen Formulierung Verbindung 1 (Gd) und der Verbindung 3 (Dy, extrazelluläre Vergleichssubstanz) konnte durch die unterschiedliche Markierung im gleichen Tier verglichen werden und wurde prozentual ins Verhältnis zur Konzentration der Verbindung 2 gesetzt. Damit liefern diese Daten Angaben über den Verbleib der Verbindungen im Intravasalraum.

[8] = as above; design: species or system Ratte; settings: i.v. 20 µmol/kg each, relative to Verbindung 2 set as 100 %
Experimental: as §1

1,4,7-Tris(N-3,3,6-tris(carboxylatomethyl)-6-[N-3-aza-2,5-dioxo-pentan-1,5-diyl]-3,6,9-triazaundecan-1,11-disäure, Gd-Komplex, Mononatriumsalz}-10-2H,2H,4H,4H,5H,5H-3-oxa-perfluor-tridecanoyl)-1,4,7,10-tetraazacyclododecan [Beispiel 8 b)]
R^1 (T^1-Relaxivity) [1]: 20,6 L/mmol * sec

1,4,7-Tris{1,4,7-tris-(N-carboxylatomethyl)-10-[N-(4,7-diaza-3,6,9-trioxo)-nonan-2,9-diyl]-1,4,7,10-tetraazacyclododecan, Gd-Komplex-10-(N-22F,22F,22F,21F,21F, 20F,20F,19F, 19F, 18F, 18F, 17F,17F, 16F, 16F, 15F, 15F-heptadecafluor-12-oxadocosanoyl)-1,4,7,10-tetraazacyclododecan [Beispiel 14 e)]
R^1 (T^1-Relaxivity) [1]: 19,3 L/mmol * sec

1,4,7-Tris{N-3,9-bis(carboxylatomethyl)-6-[N-3-aza-2,5-dioxo-pentan-1,5-diyl]-3,6,9-triazaundecan-1-carboxylato-11-säure, Gd-Komplex, Natriumsalz}-10-[Nacetyl-(2-amino-N-ethyl-N-perfluoroctylsulfonyl)]-1,4,7,10-tetraazacyclododecan [Beispiel 18 d)]
R^1 (T^1-Relaxivity) [1]: 23,0 L/mmol * sec

1,4,7-Tris{N-[3,9-bis{N-carboxylatomethyl)]-6-[N-{3-aza-2,5-dioxo-pentan)-1,5-diyl]-3,6,9-triazaundecan-1-carboxylato-11-säure, Gd-Komplex, Mononatriumsalz}-10-N-{undecanoyl-〈11-amino-N-[acetyl-(2-amino-N-ethyl-N-perfluoroctylsulfonyl)]) }-1,4,7,10-tetraazacyclododecan [Beispiel 25 f)]
R^1 (T^1-Relaxivity) [1]: 15,1 L/mmol * sec

1,4,7-Tris{N-hexanoyl-2,6-bis〈*amino-N-acetyl-2-[3,9-bis(N-carboxylato-methyl)-6-yl-3,6,9-triazaundecan-1-carboxylato-11-säure, Gd-Komplex, Mononatriumsalz]〉}-10-[N-acetyl-(2-amino-N-ethyl-N-perfluoroctylsulfonyl)]-1,4,7,10-tetraazacyclododecan [Beispiel 26 d)]
R^1 (T^1-Relaxivity) [1]: 13,0 L/mmol * sec

1,4,7-Tris{N-hexanoyl-2,6-bis〈amino-N-acetyl-2-[aminopropanoyl-(2-yl)]-[1,4,7-tris(Ncarboxylatomethyl)-1,4,7,10-tetraazacyclododecan-10-yl, Gd-Komplex]〉}-10-[N-acetyl-(2-amino-N-ethyl-N-perfluoroctylsulfonyl)]-1,4,7,10-tetraazacyclododecan [Beispiel 27]
R^1 (T^1-Relaxivity) [1]: 16,1 L/mmol * sec

CCN(CC(=O)N1CCN(C(=O)CNC(=O)CNC(=O)C(C)N2CCN(CC(=O)[O-])CCN(CC(=O)[O-])CCN(CC(=O)[O-])CC2)CCN(C(=O)CNC(=O)CNC(=O)C(C)N2CCN(CC(=O)[O-])CCN(CC(=O)[O-])CCN(CC(=O)[O-])CC2)CCN(C(=O)CNC(=O)CNC(=O)C(C)N2CCN(CC(=O)[O-])CCN(CC(=O)[O-])CCN(CC(=O)[O-])CC2)CC1)S(=O)(=O)C(F)(F)C(F)(F)C(F)(F)C(F)(F)C(F)(F)C(F)(F)C(F)(F)C(F)(F)F.[Gd+3].[Gd+3].[Gd+3] (centres unmarked) [Beispiel 19, 1,4,7-Tris{1,4,7-tris(N-carboxylatomethyl)-10-[N-(4,7-diaza-3,6,9-trioxo)-nonan-2,9-diyl]-1,4,7,10-tetraazacyclododecan, Gd-Komplex}-10-[N-acetyl-(2-amino-N-ethyl-N-perfluor-octylsulfonyl)]-1,4,7,10-tetraazacyclododecan]
Gadolinium-Gehalt in den Organen 7 d p.i., Leber [2]: 0.09 ± 0.09 % Dosis
Gadolinium-Gehalt in den Organen 7 d p.i., Milz [2]: 0.00 ± 0.01 % Dosis
Gadolinium-Gehalt in den Organen 7 d p.i., Nieren [2]: 0.06 ± 0.04 % Dosis
CL tot [3]: 0.94 mL/min/kg
Vss [3]: 0.12 L/kg
R^1 (T^1-Relaxivity) [1]: 21,4 L/mmol * sec
Relaxivity (r1, Plasma) ([1]; plasma): ≈ 19.5 1*mmol^- ^1*s^-1
Gadolinium-Konzentration an der Injektionsstelle (Pfote) ([4]; 30 min p.i.): 48,4 ± 10,4 % Dosis
Gadolinium-Konzentration an der Injektionsstelle (Pfote) ([4]; 90 min p.i.): 8,0 ± 1,7 % Dosis
Gadolinium-Konzentration an der Injektionsstelle (Pfote) ([4]; 7 d p.i.): 0,7 ± 0,6 % Dosis
Gd-Konzentration, Blut ([5]; 30 min p.i.): 24 ± 3 µmol/L
Gd-Konzentration, Lymphknoten iliakal ([5]; 30 min p.i.): 50 ± 18 µmol/L
Gd-Konzentration, Lymphknoten inguinal profund ([5]; 30 min p.i.): 43 ± 41 µmol/L
Gd-Konzentration, Lymphknoten popliteal ([5]; 30 min p.i.): 345 ± 319 µmol/L
Gd-Konzentration, Urin ([5]; 30 min p.i.): 261 ± 167 µmol/L
Gd-Konzentration, Blut ([5]; 90 min p.i.): 25 ± 4 µmol/L
Gd-Konzentration, Lymphknoten iliakal ([5]; 90 min p.i.): 20 ± 8 µmol/L
Gd-Konzentration, Lymphknoten inguinal profund ([5]; 90 min p.i.): 9 ± 2 µmol/L
Gd-Konzentration, Lymphknoten popliteal ([5]; 90 min p.i.): 75 ± 20 µmol/L
Gd-Konzentration, Urin ([5]; 90 min p.i.): 348 ± 119 µmol/L

C[NH2+]C[C@@H](O)[C@@H](O)[C@H](O)[C@@H](O)CO.C[NH2+]C[C@@H](O)[C@@H](O)[C@H](O)[C@@H](O)CO.O=C([O-])CN(CCN(CC(=O)[O-])CC(=O)[O-])CCN(CC(=O)[O-])CC(=O)[O-].[Gd+3] [Magnevist ®, Di-N-methylglucaminsalz des Gd-DTPA-Komplexes, reference compound]
R^1 (T^1-Relaxivity) [1]: 4,8 L/mmol * sec
T^1-Relaxivity [6]: 3,5 - 4,9 mM^-1 · sec^-1

CNC(=O)CN(CCN(CCN(CC(=O)[O-])CC(=O)NC)CC(=O)[O-])CC(=O)[O-].[Gd+3] [Omniscan®]
T^1-Relaxivity [6]: 3,5 - 4,9 mM^-1 · sec^-1

CC(O)CN1CCN(CC(=O)[O-])CCN(CC(=O)[O-])CCN(CC(=O)[O-])CC1.[Gd+3] (centres unmarked) [Pro Hance®]
T^1-Relaxivity [6]: 3,5 - 4,9 mM^-1 · sec^-1

Dy-DTPA [reference compound]
Prozentsatz der im Blutraum verbliebenen Dosis ([7]; 30 sec p.i.): 48%
Prozentsatz der im Blutraum verbliebenen Dosis ([7]; 3 min p.i.): 25%
Prozentsatz der im Blutraum verbliebenen Dosis ([7]; 10 min p.i.): 21%
Vss [3]: 0.17 L/kg

Gadolinium-III-Komplex des 1,4,7,10-Tetracarboxymethyl-1,4,7,10-tetraazacyclododecans [Dotarem®]
T^1-Relaxivity [6]: 3,5 - 4,9 mM^-1 · sec^-1

Verbindung 2: intravasales Kontrastmittel Eu-DTPA-Albumin
Prozentsatz der im Blutraum verbliebenen Dosis ([8]; 30 sec p.i.): 100%
Prozentsatz der im Blutraum verbliebenen Dosis ([8]; 3 min p.i.): 100%
Prozentsatz der im Blutraum verbliebenen Dosis ([8]; 10 min p.i.): 100%
